# Test results taken from patent publication US11739101B2, “Bifunctional degraders of hematopoietic progenitor kinase and therapeutic uses thereof” (Nurix Therapeutics, Inc., priority 2020, dated 2023).
# Target: T1, HPK1 (Homo sapiens, UniProt Q92918)
# T1 construct: A HiBiT tag was introduced by CRISPR on the N terminus of HPK1 in Jurkat cells; host or cells: Jurkat (ATCC TIB-152), monoclonal CRISPR HiBiT knock-in line
# Experiment: HPK1 Cellular HiBiT Degradation Assay
# Assay type: cell-based
# Details: HiBiT-tagged HPK1 Jurkat cells, 24 hours, 10 uM to 0.1 nM; Dmax = 100 minus lowest % HPK1 remaining vs DMSO vehicle
# Procedure, shortened: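 Jurkat cells with CRISPR N-terminal HiBiT-tagged HPK1 were exposed to an 11-point 3.16-fold dilution series, 10 uM to 0.1 nM final, for 24 hours at 37° C./5% CO2. HPK1 was read by HiBiT lytic luminescence against DMSO as 100% and parental cells as background. Dmax is 100 minus the lowest % remaining from a four-parameter fit, with a parallel CellTiter-Glo viability check.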
# T1 sequence (Q92918 whole entry): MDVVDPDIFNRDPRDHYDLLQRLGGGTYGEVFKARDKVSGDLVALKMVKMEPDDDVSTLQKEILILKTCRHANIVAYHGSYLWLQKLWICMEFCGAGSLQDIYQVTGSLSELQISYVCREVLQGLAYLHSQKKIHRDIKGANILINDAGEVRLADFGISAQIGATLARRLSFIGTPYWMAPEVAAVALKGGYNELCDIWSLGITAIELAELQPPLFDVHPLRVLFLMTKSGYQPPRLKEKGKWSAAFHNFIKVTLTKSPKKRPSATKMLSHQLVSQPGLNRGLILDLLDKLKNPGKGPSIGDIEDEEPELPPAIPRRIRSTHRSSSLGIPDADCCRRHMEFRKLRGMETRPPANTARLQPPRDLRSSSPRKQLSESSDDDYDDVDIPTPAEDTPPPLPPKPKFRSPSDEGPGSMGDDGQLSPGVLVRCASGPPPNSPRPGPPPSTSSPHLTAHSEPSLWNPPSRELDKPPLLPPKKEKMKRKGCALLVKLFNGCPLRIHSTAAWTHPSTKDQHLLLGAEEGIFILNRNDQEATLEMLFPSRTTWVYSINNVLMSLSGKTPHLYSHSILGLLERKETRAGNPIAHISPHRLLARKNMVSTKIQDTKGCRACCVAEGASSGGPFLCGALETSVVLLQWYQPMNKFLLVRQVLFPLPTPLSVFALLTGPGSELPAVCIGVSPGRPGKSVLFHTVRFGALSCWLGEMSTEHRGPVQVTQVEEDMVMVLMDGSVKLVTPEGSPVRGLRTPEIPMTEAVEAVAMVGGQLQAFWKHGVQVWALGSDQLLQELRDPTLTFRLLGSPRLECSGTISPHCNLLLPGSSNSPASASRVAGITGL
SMILES,Dmax [%],Cellular HPK1 HiBiT: Dmax (%)
"Cc1cc(F)c(Nc2nc(-c3ccc4c(c3)N([C@H]3C[C@@H](N5CCCCC5)C3)C(=O)C43CCN(C(=O)c4ccc(C(=O)N5CCC(c6cccc7c6C(=O)N([C@H]6CCC(=O)NC6=O)C7=O)CC5)cc4)CC3)cc3ncn(C(C)C)c23)cc1C(=O)NC(C)C [Example 75, 5-[(6-{1′-[4-(4-{2-[2,6-dioxopiperidin-3-yl]-1,3-dioxo-2,3-dihydro-1H-isoindol-4-yl}piperidine-1-carbonyl)benzoyl]-2-oxo-1-[(1s,3s)-3-(piperidin-1-yl)cyclobutyl]-1,2-dihydrospiro[indole-3,4′-piperidin]-6-yl}-3-(propan-2-yl)-3H-imidazo[4,5-c]pyridin-4-yl)amino]-4-fluoro-2-methyl-N-(propan-2-yl)benzamide]",< 45,–
"Cc1cc(F)c(Nc2nc(-c3ccc4c(c3)N([C@H]3C[C@@H](N5CCCCC5)C3)C(=O)C43CCN(C(=O)CN4CCC5(CC4)CN(c4ccc6c(c4)C(=O)N(C4CCC(=O)NC4=O)C6=O)C5)CC3)cc3ncn(C(C)C)c23)cc1C(=O)NC(C)C (stereo partly shown) [Example 22, 5-[(6-{1′-[2-(2-{2-[2,6-dioxopiperidin-3-yl]-1,3-dioxo-2,3-dihydro-1H-isoindol-5-yl}-2,7-diazaspiro[3.5]nonan-7-yl)acetyl]-2-oxo-1-[(1s,3s)-3-(piperidin-1-yl)cyclobutyl]-1,2-dihydrospiro[indole-3,4′-piperidin]-6-yl}-3-(propan-2-yl)-3H-imidazo[4,5-c]pyridine-4-yl)amino]-4-fluoro-2-methyl-N-(propan-2-yl)benzamide]",< 45,–
"Cc1cc(F)c(Nc2nc(-c3ccc4c(c3)N(C3CC(N5CCCCC5)C3)C(=O)C43CCN(C(=O)c4ccc(C(=O)N(C)C5CCC(Nc6cccc7c6C(=O)N(C6CCC(=O)NC6=O)C7=O)CC5)cc4)CC3)cc3ncn(C(C)C)c23)cc1C(=O)NC(C)C [Example 61, 4-fluoro-2-methyl-5-({6-[1′-(4-{methyl[(1R,4R)-4-{[2-(2,6-dioxopiperidin-3-yl)-1,3-dioxo-2,3-dihydro-1H-isoindol-4-yl]amino}cyclohexyl]carbamoyl}benzoyl)-2-oxo-1-[(1s,3s)-3-(piperidin-1-yl)cyclobutyl]-1,2-dihydrospiro[indole-3,4′-piperidin]-6-yl]-3-(propan-2-yl)-3H-imidazo[4,5-c]pyridin-4-yl}amino)-N-(propan-2-yl)benzamide]",–,A (A>65%)
"Cc1cc(F)c(Nc2nc(-c3ccc4c(c3)N([C@H]3C[C@@H](N5CCCCC5)C3)C(=O)C43CCN(C(=O)CCOCCOCCOCCOc4cc(-c5scnc5C)ccc4CNC(=O)[C@H]4C[C@H](O)CN4C(=O)[C@H](NC(=O)C4(F)CC4)C(C)(C)C)CC3)cc3ncn(C(C)C)c23)cc1C(=O)NC(C)C [Example 9, (2S,4R)—N-(2-(2-(2-(2-(3-(6-(4-((2-fluoro-5-(isopropylcarbamoyl)-4-methylphenyl)amino)-3-isopropyl-3H-imidazo[4,5-c]pyridin-6-yl)-2-oxo-1-((1s,3s)-3-(piperidin-1-yl)cyclobutyl)spiro[indoline-3,4′-piperidin]-1′-yl)-3-oxopropoxy)ethoxy)ethoxy)ethoxy)-4-(4-methylthiazol-5-yl)benzyl)-1-((S)-2-(1-Fluorocyclopropane-1-carboxamido)-3,3-dimethylbutanoyl)-4-hydroxypyrrolidine-2-carboxamide]",< 45,–
"Cc1cc(F)c(Nc2nc(-c3ccc4c(c3)N(C3CC(N5CCCCC5)C3)C(=O)C43CCN(C(=O)CCCCCCCCCNc4ccc5c(c4)C(=O)N(C4CCC(=O)NC4=O)C5=O)CC3)cc3ncn(C(C)C)c23)cc1C(=O)NC(C)C (stereo not shown) [Example 4, 5-((6-(1′-(10-((2-(2,6-dioxopiperidin-3-yl)-1,3-dioxoisoindolin-5-yl)amino)decanoyl)-2-oxo-1-((1s,3s)-3-(piperidin-1-yl)cyclobutyl)spiro[indoline-3,4′-piperidin]-6-yl)-3-isopropyl-3H-imidazo[4,5-c]pyridin-4-yl)amino)-4-fluoro-N-isopropyl-2-methylbenzamide]",< 45,–
"Cc1cc(F)c(Nc2nc(-c3ccc4c(c3)N([C@H]3C[C@@H](N5CCCCC5)C3)C(=O)C43CCN(C(=O)CN4CCN(c5ccc6c(c5)C(=O)N(C5CCC(=O)NC5=O)C6=O)CC4)CC3)cc3ncn(C(C)C)c23)cc1C(=O)NC(C)C (mixture of isomers) [Example 23, 5-[(6-{1′-[2-(4-{2-[(3RS)-2,6-dioxopiperidin-3-yl]-1,3-dioxo-2,3-dihydro-1H-isoindol-5-yl}piperazin-1-yl)acetyl]-2-oxo-1-[(1s,3s)-3-(piperidin-1-yl)cyclobutyl]-1,2-dihydrospiro[indole-3,4′-piperidin]-6-yl}-3-(propan-2-yl)-3H-imidazo[4,5-c]pyridin-4-yl)amino]-4-fluoro-2-methyl-N-(propan-2-yl)benzamide]",< 45,–

# Continued, in another order:
Dmax [%],SMILES,Cellular HPK1 HiBiT: Dmax (%)
45 to 65,"Cc1cc(F)c(Nc2nc(-c3ccc4c(c3)N([C@H]3C[C@@H](N5CCCCC5)C3)C(=O)C43CCN(C(=O)C4CCN(C(=O)CN5CC6(CCN(c7ccc8c(c7)C(=O)N(C7CCC(=O)NC7=O)C8=O)CC6)C5)CC4)CC3)cc3ncn(C(C)C)c23)cc1C(=O)NC(C)C (stereo partly shown) [Example 42, 5-{[6-(1′-{1-[2-(7-{2-[2,6-dioxopiperidin-3-yl]-1,3-dioxo-2,3-dihydro-1H-isoindol-5-yl}-2,7-diazaspiro[3.5]nonan-2-yl)acetyl]piperidine-4-carbonyl}-2-oxo-1-[(1s,3s)-3-(piperidin-1-yl)cyclobutyl]-1,2-dihydrospiro[indole-3,4′-piperidin]-6-yl)-3-(propan-2-yl)-3H-imidazo[4,5-c]pyridin-4-yl]amino}-4-fluoro-2-methyl-N-(propan-2-yl)benzamide]",–
< 45,"Cc1cc(F)c(Nc2nc(-c3ccc4c(c3)N([C@H]3C[C@@H](N5CCCCC5)C3)C(=O)C43CCN(C(=O)C[C@@H]4CCN(C(=O)[C@H]5CC[C@H](Nc6cccc7c6C(=O)N(C6CCC(=O)NC6=O)C7=O)CC5)C4)CC3)cc3ncn(C(C)C)c23)cc1C(=O)NC(C)C (stereo partly drawn) [Example 56, 4-fluoro-2-methyl-5-{[6-(2-oxo-1′-{2-[(3S)-1-[(1R,4R)-4-({2-[2,6-dioxopiperidin-3-yl]-1,3-dioxo-2,3-dihydro-1H-isoindol-4-yl}amino)cyclohexanecarbonyl]pyrrolidin-3-yl]acetyl}-1-[(1s,3s)-3-(piperidin-1-yl)cyclobutyl]-1,2-dihydrospiro[indole-3,4′-piperidin]-6-yl)-3-(propan-2-yl)-3H-imidazo[4,5-c]pyridin-4-yl]amino}-N-(propan-2-yl)benzamide]",–
> 65,"Cc1cc(F)c(Nc2nc(-c3ccc4c(c3)N([C@H]3C[C@@H](N5CCCCC5)C3)C(=O)C43CCN(C(=O)OC4CCN(C(=O)C5CCN(c6ccc7c(c6)C(=O)N(C6CCC(=O)NC6=O)C7=O)CC5)CC4)CC3)cc3ncn(C(C)C)c23)cc1C(=O)NC(C)C (stereo partly shown) [Example 55, 1-(1-{2-[2,6-dioxopiperidin-3-yl]-1,3-dioxoisoindol-5-yl}piperidine-4-carbonyl)piperidin-4-yl 6-(4-{[2-fluoro-5-(isopropylcarbamoyl)-4-methylphenyl]amino}-3-isopropylimidazo[4,5-c]pyridin-6-yl)-2-oxo-1-[(1s,3s)-3-(piperidin-1-yl)cyclobutyl]spiro[indole-3,4′-piperidine]-1′-carboxylate]",–
45 to 65,Cc1cc(F)c(Nc2nc(-c3ccc4c(c3)N([C@H]3C[C@@H](N5CCCCC5)C3)C(=O)C43CCN(C(=O)C4CCN(C(=O)C5CCN(C(=O)CNc6cccc7c6C(=O)N(C6CCC(=O)NC6=O)C7=O)CC5)C4)CC3)cc3ncn(C(C)C)c23)cc1C(=O)NC(C)C (stereo partly shown) [Example 49],–
